Legend:
Assay in all cases: Affinity chromatography with NFX-beads and mass spectrometry
Type in all cases: binding
Details in all cases: spectral counts, NFX coupled beads vs beads alone, human fibroblast extracts
Vigilin (HDLBP) = biological target: T1, Vigilin (HDLBP) (Homo sapiens, UniProt Q00341)
T1 construct: Protein extracts from human fibroblasts were incubated with magnetic beads; endogenous in cells; host or cells: human fibroblast lysate
T1 sequence (Q00341 1-1268): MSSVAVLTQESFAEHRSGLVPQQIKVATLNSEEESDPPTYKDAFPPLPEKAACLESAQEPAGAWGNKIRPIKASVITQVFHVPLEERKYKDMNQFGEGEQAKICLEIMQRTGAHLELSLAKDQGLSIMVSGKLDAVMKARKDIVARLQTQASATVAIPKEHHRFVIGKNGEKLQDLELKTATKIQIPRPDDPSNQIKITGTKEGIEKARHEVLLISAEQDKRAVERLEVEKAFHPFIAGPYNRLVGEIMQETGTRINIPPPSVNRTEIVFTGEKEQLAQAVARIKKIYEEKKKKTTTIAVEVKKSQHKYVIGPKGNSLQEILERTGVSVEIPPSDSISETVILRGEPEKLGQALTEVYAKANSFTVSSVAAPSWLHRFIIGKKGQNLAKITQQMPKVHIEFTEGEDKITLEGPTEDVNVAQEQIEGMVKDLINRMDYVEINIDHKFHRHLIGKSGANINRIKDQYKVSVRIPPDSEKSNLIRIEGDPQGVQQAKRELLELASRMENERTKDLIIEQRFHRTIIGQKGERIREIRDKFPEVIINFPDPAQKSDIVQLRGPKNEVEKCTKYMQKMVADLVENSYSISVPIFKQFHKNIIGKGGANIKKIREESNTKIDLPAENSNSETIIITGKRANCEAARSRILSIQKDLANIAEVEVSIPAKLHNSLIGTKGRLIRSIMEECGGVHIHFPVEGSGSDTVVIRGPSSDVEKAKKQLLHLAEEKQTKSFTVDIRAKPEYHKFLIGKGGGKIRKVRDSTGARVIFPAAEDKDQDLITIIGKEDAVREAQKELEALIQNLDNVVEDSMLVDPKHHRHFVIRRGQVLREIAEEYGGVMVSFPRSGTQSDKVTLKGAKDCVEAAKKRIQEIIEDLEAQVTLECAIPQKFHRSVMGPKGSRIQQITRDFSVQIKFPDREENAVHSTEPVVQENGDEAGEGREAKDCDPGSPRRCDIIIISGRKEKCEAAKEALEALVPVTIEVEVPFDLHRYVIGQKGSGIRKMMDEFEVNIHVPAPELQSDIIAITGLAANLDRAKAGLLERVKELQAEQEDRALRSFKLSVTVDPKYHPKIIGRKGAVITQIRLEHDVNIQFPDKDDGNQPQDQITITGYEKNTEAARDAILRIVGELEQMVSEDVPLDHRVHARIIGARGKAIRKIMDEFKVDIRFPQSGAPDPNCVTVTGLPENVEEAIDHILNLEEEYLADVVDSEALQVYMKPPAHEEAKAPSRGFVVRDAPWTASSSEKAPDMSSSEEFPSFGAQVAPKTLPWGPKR
Method: (§1) Fibroblasts were trypsinized and washed with PBS 1× then incubated in lysis buffer on ice during 20 minutes (Lysis buffer: Tris-HCl pH 7.5 50 mM, EDTA 2 mM, Triton X-100 0.1% supplemented with anti-protease and anti-phosphatase (Complete-Mini™—Roche). After centrifugation 15 minutes, 13 000 rpm at 4° C., supernatant was conserved and the protein concentration was determined using the Pierce BCA assay kit (Thermo Fisher Scientific).
(§2) 10 μL of magnetic beads and NFX-beads were washed three times in Bead buffer before to be resuspended 100 μL of Bead buffer (Bead buffer: Tris-HCl pH 7.5 50 mM, NaCl 150 mM, Triton X-100 0.1%, supplemented with anti-protease and anti-phosphatase (Complete-Mini™—Roche)) thanks to a magnetic rack (DynaMag-2 Ref 12321D Life Technologies). 800 μg of proteins were mixed with 100 μL of diluted beads and the final volume was set to 800 μL with Bead buffer. The proteins and the beads were incubated 30 minutes with rotation in a cold room. Using a magnetic rack, the beads were separated from the protein extract and washed three time with Bead buffer before to be resuspended in 75 μL of Laemmli2X. Laemmli with beads was put 5 minutes at 95° C. to eluate the proteins and the beads were discarded using a magnetic rack. 35 μL of the eluted proteins were subjected to SDS-PAGE and silver coloration (ProteoSilver™ Silver Stain Kit—Sigma Aldrich). Bands of interest were extracted from the gel and subjected to mass spectrometry.
(§3) Mass spectrometric identification and quantification of the pulled down proteins were performed as previously described (Shrivastava et al., EMBO, 2019, 38:e99871). The raw data were cleaned using the following pathway. First, only the proteins found to interact with the NFX coupled beads in the three replicates were kept for further analysis. […] The final proteins were then classified based on the fold chance and the p-value.
(§4) Identification of the NFX intracellular targets is a crucial step in understanding its mechanisms of action and to be able to improve its efficiency on a rational basis. To purify NFX-binding proteins, affinity chromatography purification was performed using magnetic beads. Protein extracts from human fibroblasts were incubated with magnetic beads alone or to which NFX has been covalently coupled (Scheme 1). Eluted fractions were subjected to SDS-PAGE electrophoresis and silver staining (FIG. 9A). The pattern was clearly different between eluted proteins from NFX-beads compared to those eluted form beads alone with 13 bands either appeared or were of a higher intensity with the NFX-beads (FIG. 9B). Excised bands were subjected to proteolytic digestion and mass spectrometry.

[1] = biological target: T2, E3 ubiquitin-protein ligase DTX3L (Homo sapiens, UniProt Q8TDB6)
T2 construct: Protein extracts from human fibroblasts were incubated with magnetic beads; endogenous in cells; host or cells: human fibroblast lysate
Method: as §1, §2, §3, §4

[2] = biological target: T3, Myotubularin-related protein 5 (SBF1) (Homo sapiens, UniProt O95248)
T3 construct: Protein extracts from human fibroblasts were incubated with magnetic beads; endogenous in cells; host or cells: human fibroblast lysate
Method: as §1, §2, §3, §4

[3] = biological target: T4, Calcium/calmodulin-dependent protein kinase type II subunit delta (CAMK2D) (Homo sapiens, UniProt Q13557)
T4 construct: Protein extracts from human fibroblasts were incubated with magnetic beads; endogenous in cells; host or cells: human fibroblast lysate
Method: as §1, §2, §3, §4

[4] = biological target: T5, RNA-splicing ligase RtcB homolog (RTCB) (Homo sapiens, UniProt Q9Y3I0)
T5 construct: Protein extracts from human fibroblasts were incubated with magnetic beads; endogenous in cells; host or cells: human fibroblast lysate
T5 sequence (Q9Y3I0 1-505): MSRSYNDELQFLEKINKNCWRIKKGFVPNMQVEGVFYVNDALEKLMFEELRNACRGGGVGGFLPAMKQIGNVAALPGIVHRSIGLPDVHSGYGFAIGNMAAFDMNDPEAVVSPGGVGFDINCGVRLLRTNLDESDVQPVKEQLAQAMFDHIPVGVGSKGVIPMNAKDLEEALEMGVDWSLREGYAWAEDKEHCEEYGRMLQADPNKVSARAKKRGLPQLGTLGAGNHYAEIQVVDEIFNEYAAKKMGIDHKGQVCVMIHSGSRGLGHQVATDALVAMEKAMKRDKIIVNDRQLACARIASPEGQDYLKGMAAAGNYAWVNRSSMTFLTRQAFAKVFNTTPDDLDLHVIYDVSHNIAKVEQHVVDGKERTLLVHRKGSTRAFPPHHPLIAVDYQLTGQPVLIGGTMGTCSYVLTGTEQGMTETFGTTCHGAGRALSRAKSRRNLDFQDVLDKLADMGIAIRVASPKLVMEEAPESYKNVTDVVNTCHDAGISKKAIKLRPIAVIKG
Method: as §1, §2, §3, §4

T4 sequence (Q13557 whole entry): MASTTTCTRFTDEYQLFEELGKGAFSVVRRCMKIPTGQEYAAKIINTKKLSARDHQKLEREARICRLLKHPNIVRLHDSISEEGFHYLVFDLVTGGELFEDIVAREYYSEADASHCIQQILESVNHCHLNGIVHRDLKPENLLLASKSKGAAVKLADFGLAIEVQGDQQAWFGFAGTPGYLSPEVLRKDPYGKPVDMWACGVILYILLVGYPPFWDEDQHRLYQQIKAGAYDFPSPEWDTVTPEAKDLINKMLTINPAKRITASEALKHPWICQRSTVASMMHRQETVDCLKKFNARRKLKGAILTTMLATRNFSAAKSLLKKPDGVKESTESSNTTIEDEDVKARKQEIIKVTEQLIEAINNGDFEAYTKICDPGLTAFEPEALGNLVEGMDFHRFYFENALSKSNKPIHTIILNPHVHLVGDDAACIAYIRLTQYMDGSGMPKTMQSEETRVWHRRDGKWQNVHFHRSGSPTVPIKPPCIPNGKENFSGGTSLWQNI
T3 sequence (O95248 whole entry): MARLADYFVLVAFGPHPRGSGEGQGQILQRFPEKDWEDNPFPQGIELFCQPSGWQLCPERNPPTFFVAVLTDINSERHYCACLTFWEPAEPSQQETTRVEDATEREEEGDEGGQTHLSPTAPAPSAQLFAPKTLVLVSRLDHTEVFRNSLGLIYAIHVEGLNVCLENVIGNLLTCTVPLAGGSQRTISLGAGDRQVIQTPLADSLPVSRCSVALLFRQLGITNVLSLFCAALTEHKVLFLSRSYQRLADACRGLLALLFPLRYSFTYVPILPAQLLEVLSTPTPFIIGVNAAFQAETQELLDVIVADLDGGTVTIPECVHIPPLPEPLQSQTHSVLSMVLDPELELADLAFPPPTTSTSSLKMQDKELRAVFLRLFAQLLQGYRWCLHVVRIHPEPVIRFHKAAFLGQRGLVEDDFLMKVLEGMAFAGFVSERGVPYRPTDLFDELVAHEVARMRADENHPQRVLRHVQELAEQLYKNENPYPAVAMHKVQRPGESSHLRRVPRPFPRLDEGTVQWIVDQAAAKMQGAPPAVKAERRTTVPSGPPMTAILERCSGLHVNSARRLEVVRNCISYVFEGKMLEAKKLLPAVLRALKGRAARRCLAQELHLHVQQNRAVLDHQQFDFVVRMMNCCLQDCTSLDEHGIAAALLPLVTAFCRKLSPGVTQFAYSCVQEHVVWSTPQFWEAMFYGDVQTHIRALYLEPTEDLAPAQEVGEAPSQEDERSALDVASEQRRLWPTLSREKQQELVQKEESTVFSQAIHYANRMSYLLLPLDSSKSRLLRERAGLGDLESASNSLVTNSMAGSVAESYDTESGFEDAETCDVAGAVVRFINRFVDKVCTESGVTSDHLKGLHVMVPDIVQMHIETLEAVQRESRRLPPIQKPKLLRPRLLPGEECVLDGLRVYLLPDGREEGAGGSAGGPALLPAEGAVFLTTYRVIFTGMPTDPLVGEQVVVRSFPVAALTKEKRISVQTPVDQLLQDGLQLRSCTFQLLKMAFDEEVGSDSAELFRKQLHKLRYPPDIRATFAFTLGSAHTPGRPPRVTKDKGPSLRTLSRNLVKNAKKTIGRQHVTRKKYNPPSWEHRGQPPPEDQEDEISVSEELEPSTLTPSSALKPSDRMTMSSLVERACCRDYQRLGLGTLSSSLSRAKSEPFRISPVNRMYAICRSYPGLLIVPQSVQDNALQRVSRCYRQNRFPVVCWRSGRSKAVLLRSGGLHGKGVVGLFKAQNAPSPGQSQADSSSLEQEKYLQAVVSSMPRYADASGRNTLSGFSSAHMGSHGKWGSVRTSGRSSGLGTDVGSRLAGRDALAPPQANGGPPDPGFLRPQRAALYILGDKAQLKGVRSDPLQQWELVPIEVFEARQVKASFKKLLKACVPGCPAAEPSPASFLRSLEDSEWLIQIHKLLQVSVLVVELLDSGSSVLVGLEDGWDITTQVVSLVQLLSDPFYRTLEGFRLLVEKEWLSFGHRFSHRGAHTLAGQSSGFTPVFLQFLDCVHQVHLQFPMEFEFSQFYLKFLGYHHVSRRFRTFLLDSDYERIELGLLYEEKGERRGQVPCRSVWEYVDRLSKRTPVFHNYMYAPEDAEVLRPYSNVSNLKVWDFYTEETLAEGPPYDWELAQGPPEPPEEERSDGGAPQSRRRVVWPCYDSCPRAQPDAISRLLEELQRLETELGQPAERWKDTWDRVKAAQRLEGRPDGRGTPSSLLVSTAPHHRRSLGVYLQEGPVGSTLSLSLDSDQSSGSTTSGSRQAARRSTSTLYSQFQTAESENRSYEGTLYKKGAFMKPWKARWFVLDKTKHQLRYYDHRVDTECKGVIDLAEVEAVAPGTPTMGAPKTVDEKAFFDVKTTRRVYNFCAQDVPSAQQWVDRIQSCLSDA

Question: Which Fold change (Vigilin (HDLBP)) does the source give for `O=C(N/N=C/c1ccc([N+](=O)[O-])o1)c1ccc(O)cc1` [NFX, (E)-4-hydroxy-N′-((5-nitrofuran-2-yl)methylene)benzohydrazide] here?
Answer: 77.14

Question: And the Fold change [1]?
Answer: 386.67

Question: What about the Fold change [2] of the same compound?
Answer: 41.35

Question: And the Fold change [3]?
Answer: 803.33

Question: And the Fold change [4]?
Answer: 40.98

Reference: US20250025439A1, “DERIVATIVES OF NIFUROXAZIDE FOR USE IN THE TREATMENT OF MITOCHONDRIAL DISORDERS AND NEURODEGENERATIVE DISEASES” (priority 2021, published 2025)
